Measured values: article PMC2994686, “The Function and Three-Dimensional Structure of a Thromboxane A2/Cysteinyl Leukotriene-Binding Protein from the Saliva of a Mosquito Vector of the Malaria Parasite” (PLoS Biology, 2010)
“Also recorded” adds a separate entry of the source. Read-outs that look alike come from different tables or passages of the source.

Tests used:
AnSt-D7L1 [1] = target: T1, AnSt-D7L1 (Anopheles stephensi, UniProt Q95NY5); details: for binding to AnSt-D7L1 by ITC (in words): ITC screen of candidate ligands, partly unpublished data; for Kd: read-out: dissociation constant (Kd), ITC, 35°C, 40 µM ligand in syringe, 4 µM AnSt-D7L1 in cell, single binding site model
T1 sequence (Q95NY5 19-315 limits assumed): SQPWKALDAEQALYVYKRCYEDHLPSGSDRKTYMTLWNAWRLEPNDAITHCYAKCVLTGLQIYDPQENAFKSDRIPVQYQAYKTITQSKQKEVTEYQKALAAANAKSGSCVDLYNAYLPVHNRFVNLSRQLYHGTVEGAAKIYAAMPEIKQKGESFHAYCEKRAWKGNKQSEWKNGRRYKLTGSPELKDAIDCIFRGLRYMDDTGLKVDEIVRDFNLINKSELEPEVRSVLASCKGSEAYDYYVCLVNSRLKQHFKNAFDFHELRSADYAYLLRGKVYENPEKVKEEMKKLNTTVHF
Procedure: (§1) Binding experiments were performed on a MicroCal VP-ITC instrument. For CysLT experiments the syringe contained a 20 µM ligand solution, and the AnSt-D7L1 concentration in the cell was 2 µM. For the TXA2 analog experiments the ligand solution used to fill the syringe was 40 µM and the AnSt-D7L1 concentration in the cell was 4 µM. Assays were performed at 35°C with successive 10 µL injections.
(§2) Binding experiments were performed on a MicroCal VP-ITC instrument. For these experiments, the ligand solution used to fill the syringe was 80 µM and AnSt-D7L1 concentration in the calorimeter cell was 8 µM. Assays were performed at 35°C with successive 10 µL injections.
(§3) AnSt-D7L1 was prepared for ITC experiments by dialysis against 20 mM Tris-HCl 0.15 M NaCl pH 7.4 for 1 h. Binding experiments were performed on a MicroCal VP-ITC instrument. Aliquots of lipid stock solutions in ethanol or methyl acetate were dried under a stream of nitrogen in a glass vial, then dissolved in 20 mM Tris HCl, 0.15 M NaCl pH 7.4, vortexed, and sonicated for 8 min. Non-lipidic ligands were dissolved in 20 mM Tris HCl, 0.15 M NaCl pH 7.4. All solutions were degassed prior to use. Assays were performed at 35°C with successive 10 µL injections, with a spacing interval of 180 s and a syringe stirring speed of 290 rpm. In all the cases, after subtraction of the heats of dilution, the measured heats were converted to enthalpies and analyzed by fitting to a single-site binding model using the Microcal Origin software.

AeD7 = system: AeD7; parameters: method as in PMID 19234127; details: cited from earlier work
AnSt-D7L1 [2] = target: T1, AnSt-D7L1; assay: Incubation of LTC4 with AnSt-D7L1, gel filtration, HPLC and mass spectrometry (test for hydrolytic or enzymatic function); parameters: made in house; details: incubated at 25°C; mass spectrum of bound versus free ligand
Procedure: Fractions containing the complex were then applied to a C18 HPLC column, eluted with methanol, and analyzed by mass spectrometry.
(B) LTC4 was injected alone in order to obtain a retention volume measurement for the free ligand. In both cases, the column was eluted with 100 mM ammonium acetate pH 7.2 at a flow rate of 60 µL per min. (0.39 MB TIF) Click here for additional data file.
Supplementary file pbio.1000547.s003.tif: Figure S3 Mass spectral analysis of the AnSt-D7L1-LTC4 complex after gel filtration chromatography. Top: The peak fraction from the gel filtration of Figure S2 (3 µl) was applied to a C18 column and eluted with 5% methanol 0.1% acetic acid for 10 min, then 5%–95% methanol 0.1% acetic acid (0.3 mm diameter column in 20 min at 3 µl/min). The eluent was analyzed directly by MS/MS. […] The inset is a sample collision-induced dissociation spectrum (35% intensity) recorded at 61–65 min. (2.15 MB TIF) Click here for additional data file.

AnSt-D7L1 [3] = target: T1, AnSt-D7L1; assay: biochemical
Procedure: as §1, §2, §3

CysLT1 = target: CysLT1; parameters: method as in PMID 16107763; details: read-out: affinity of CysLT1; cited from earlier work
[4] = system: Human platelet-rich plasma; assay: Platelet aggregation assay in an aggregometer; assay type: cell-based; details: for effect on U46619-induced platelet shape change / effect on U46619-induced platelet aggregation: 1.3 µM U46619; for effect on U46619-induced platelet shape change: AnSt-D7L1 2 and 3 µM, SQ 29,548 1 µM without protein; for effect on collagen-induced platelet aggregation (comparison with TXA2 antagonists): 3 µM AnSt-D7L1, SQ 29,548, or indomethacin pre-treatment
Procedure: Figure 5 Effect of AnSt-D7L1 on platelet aggregation promoted by different agonists. Platelet-rich human plasma was incubated with different concentrations of AnSt-D7L1 for 1 min prior to the addition of agonists as indicated. Aggregation was measured at 37°C on an aggregometer. Unless otherwise stated protein concentration (µM) is shown under respective curves. (A) Concentration dependence of AnSt-D7L1 inhibition of collagen-mediated platelet aggregation at low concentration of collagen. (B) Lack of inhibition of collagen-mediated platelet aggregation by AnSt-D7L1 at high concentration of collagen. (C) Lack of inhibition of convulxin-mediated platelet aggregation by AnSt-D7L1. (D) ADP-mediated platelet aggregation in the absence of any protein (control), in the presence of 3 µM AnSt-D7L1, or in the presence of 3 µM RPAI1, which is known to bind ADP. (E) Lack of effect of AnSt-D7L1 on PMA-induced platelet aggregation. (F) Lack of effect of AnSt-D7L1 on ristocetin-induced platelet aggregation.
Figure 6 AnSt-D7L1 affects platelet aggregation promoted by TXA2. Platelet-rich human plasma was incubated with different concentrations of AnSt-D7L1 or buffer, as indicated, for 1 min prior to the addition of agonists indicated in each panel. (A) Aggregation mediated by collagen in the presence of TXA2 antagonists. The effect of 3 µM AnSt-D7L1 on collagen-induced aggregation was similar to the effect promoted by a thromboxane receptor (TP) antagonist (SQ 29,548) or by pre-incubating platelets with indomethacin, a general cyclooxygenase inhibitor. […] (B) AnSt-D7L1 has a dose dependent effect on U46619-induced platelet aggregation. Protein concentrations are shown on the bottom of each curve. […] (C) AnSt-D7L1 (3 µM) affects AA-induced platelet aggregation. […] Respective treatments are indicated in the bottom of each curve.
Platelets were prepared as described previously. Human platelet-rich plasma (∼2×10^5/µL final density) and Tyrode-BSA buffer in the presence or absence of AnSt-D7L1 (final volume 300 µL) were placed in an aggregometer and stirred at 1,200 rpm at 37°C for 1 min prior to the addition of different agonists. In experiments using the human TP (TXA2 receptor) antagonist SQ 29,548 or made in the presence of proteins (AnSt-D7L1 or RPAI-1), those compounds were added to the platelet suspension and Tyrode mix prior to addition of agonists. In experiments in which indomethacin, a general cycloxygenase inhibitor, was used, platelets were pre-incubated with the compound for 5 min prior to addition of agonists.

TP receptor = target: TP receptor; parameters: method as in PMID 18374420; details: Gα12/13-coupled signaling; read-out: EC50 for TP-mediated shape change; cited from earlier work
rat aorta = assay: Smooth muscle bioassay: U46619-induced contraction of rat aorta
Procedure: Figure 4 Smooth muscle contraction bioassay.
Tissue preparations were bathed in modified Tyrode solution (with 10 mM HEPES buffer, pH 7.4) during the course of the experiment, and the solutions were kept oxygenated by bubbling air into the bath.

In the case of `CCCCC/C=C\C/C=C\C/C=C\C/C=C\CCCC(=O)O` [AA, arachidonic acid], the “binding to AnSt-D7L1 by ITC (in words)” value (AnSt-D7L1 [1]) is reported as “no detectable binding”.
For `Nc1ncnc2c1ncn2[C@@H]1O[C@H](COP(=O)(O)OP(=O)(O)O)[C@@H](O)[C@H]1O` [ADP, adenosine diphosphate], the “binding to AnSt-D7L1 by ITC (in words)” value (AnSt-D7L1 [1]) was “Neither showed any detectable binding”.
In the case of `CCCCC/C=C\C[C@@H](O)/C=C/C=C/C=C\[C@@H](O)CCCC(=O)O` [LTB4, leukotriene B4], the “binding to AeD7 (in words)” value (AeD7) is given as “low affinity” and the “binding to AnSt-D7L1 by ITC (in words)” value (AnSt-D7L1 [1]) is given as “did not bind”.
For `CCCCC/C=C\C\C=C/C=C/C=C/[C@@H](SC[C@H](NC(=O)CC[C@H](N)C(=O)O)C(=O)NCC(=O)O)[C@@H](O)CCCC(=O)O` [LTC4, leukotriene C4], the “chemical modification of bound LTC4 by AnSt-D7L1” value (AnSt-D7L1 [2]) was “binds but does not chemically modify”.
`CCCCC/C=C\C\C=C/C=C/C=C/[C@@H](SC[C@H](N)C(=O)NCC(=O)O)[C@@H](O)CCCC(=O)O` [LTD4, leukotriene D4] gave a Kd (AnSt-D7L1 [3]) of 5 ± 1 nM.
For `CCCCC/C=C\C\C=C/C=C/C=C/[C@@H](SC[C@H](N)C(=O)O)[C@@H](O)CCCC(=O)O` [LTE4, leukotriene E4], the Kd (CysLT1) is given as roughly 100 nM.
For `CCCCC[C@H](O)/C=C/[C@H]1C(=O)C[C@H](O)[C@@H]1C/C=C\CCCC(=O)O` [PGD2], the “binding to AnSt-D7L1 by ITC (in words)” value (AnSt-D7L1 [1]) was “affinities much lower than those seen with CysLTs and TXA2 analogs”.
With `CCCCC[C@H](O)/C=C/[C@H]1[C@H](O)CC(=O)[C@@H]1C/C=C\CCCC(=O)O` [PGE2, prostaglandin E2] the “binding to AnSt-D7L1 by ITC (in words)” value (AnSt-D7L1 [1]) was “affinities much lower than those seen with CysLTs and TXA2 analogs” and the Kd (AnSt-D7L1 [3]) was 1900 ± 200 nM.
For `CCCCC[C@H](O)/C=C/[C@@H]1[C@@H](C/C=C\CCCC(=O)O)[C@@H](O)C[C@H]1O` [PGF2α, prostaglandin F2α], the “binding to AnSt-D7L1 by ITC (in words)” value (AnSt-D7L1 [1]) was “affinities much lower than those seen with CysLTs and TXA2 analogs” and the Kd (AnSt-D7L1 [3]) was 671 ± 61 nM.
For `O=C(O)CCC/C=C\C[C@@H]1[C@H](CNNC(=O)Nc2ccccc2)[C@H]2CC[C@@H]1O2` [SQ 29,548], the “effect on U46619-induced platelet shape change” value [4] was “prevented” and the “effect on collagen-induced platelet aggregation (comparison with TXA2 antagonists)” value (“effect … (comparison with TXA2 antagonists)” below) [4] was “attenuated”.
`CCCCC[C@H](O)/C=C/[C@H]1OC(O)C[C@H](O)[C@@H]1C/C=C\CCCC(=O)O` (stereo partly shown) [TXB2, thromboxane B2] gave a Kd (AnSt-D7L1 [3]) of 1300 ± 200 nM.
For `CCCCC[C@H](O)/C=C/[C@@H]1[C@@H](C/C=C\CCCC(=O)O)[C@H]2CO[C@@H]1C2` [U46619], the “binding to AeD7 (in words)” value (AeD7) is listed as “no detectable binding”, the Kd (AnSt-D7L1 [1]) is listed as roughly 98 nM and the EC50 (TP receptor) is listed as roughly 13 nM.
In the case of `CCCCCC/C=C/C1C2CC(N=N2)C1C/C=C\CCCC(=O)O` (stereo not shown) [U51605], the “binding to AnSt-D7L1 by ITC (in words)” value (AnSt-D7L1 [1]) is reported as “detectable but much weaker binding than U46619”.
Work on `CCCCC[C@H](O)/C=C/[C@H]1CC2CC(C2)[C@@H]1C/C=C\CCCC(=O)O` [carbocyclic TXA2] yielded a Kd (AnSt-D7L1 [1]) of roughly 38 nM.
For `COc1ccc2c(c1)c(CC(=O)O)c(C)n2C(=O)c1ccc(Cl)cc1` [indomethacin], the “effect … (comparison with TXA2 antagonists)” value [4] was “attenuated”.
For `CNC[C@H](O)c1cccc(O)c1` [phenylephrine], the “contraction of aorta after relaxation by AnSt-D7L1” value (rat aorta; 3 µM phenylephrine added after relaxation) was “contracted normally”.
For “AnSt-D7L1: recombinant two-domain D7 salivary protein from An. stephensi that binds CysLTs and TXA2”, the “reversal of contraction induced by U46619” value (rat aorta; aorta pre-contracted with 1 µM U46619, 0.1 µM AnSt-D7L1 added after plateau) was “caused relaxation”, the “effect on U46619-induced contraction of aorta” value (rat aorta; pre-incubation with AnSt-D7L1, 0.1 µM U46619) was “inhibited; also recorded: no contraction” and the “increase of the amount of U46619 needed to promote contraction” value (rat aorta; pre-incubation with AnSt-D7L1, successive additions of 0.1 µM U46619) was “approximately 3 fold”. For the same compound, the “effect on U46619-induced platelet aggregation” value ([4]; 1 µM AnSt-D7L1) was “dramatically inhibited aggregation”, the “effect on U46619-induced platelet aggregation” value ([4]; 2 and 3 µM AnSt-D7L1) was “completely prevented aggregation” and the “effect on U46619-induced platelet shape change” value [4] was “not completely inhibited”. The “effect on U46619-induced platelet aggregation” value ([4]; low AnSt-D7L1 concentrations, less than 1:1 ratio) was “delayed but did not prevent platelet aggregation”, the “effect on AA-induced platelet aggregation” value ([4]; AA as agonist, 3 µM AnSt-D7L1, or indomethacin pre-incubation without protein) was “drastically decreased” and the “inhibition of convulxin-induced platelet aggregation” value ([4]; GPVI agonist convulxin) was “inhibitory effect of AnSt-D7L1 was lost”. For the same compound, the “inhibition of collagen-induced platelet aggregation” value ([4]; collagen at high concentration) was “inhibitory effect of AnSt-D7L1 was lost”, the “effect … (comparison with TXA2 antagonists)” value [4] was “very similar” and the “inhibition of collagen-induced platelet aggregation” value ([4]; low collagen 1.6 µg/mL, 1 µM AnSt-D7L1) was “almost completely inhibited”. For the same compound, the “effect on the platelet response to collagen stimulation” value ([4]; low collagen, 0.03 µM AnSt-D7L1) was “sufficient to remove a significant fraction of the TXA2”, the “effect on the platelet aggregation response to collagen” value ([4]; low collagen, 0.1 µM AnSt-D7L1) was “eliminates most of the aggregation response” and the “inhibition of ADP-induced platelet shape change” value ([4]; minimal dose of ADP eliciting shape change, 3 µM protein) was “no inhibitory effect”. For the same compound, the “effect on PMA-induced platelet aggregation” value ([4]; protein kinase C activator PMA) was “no effect” and the “effect on ristocetin-induced platelet agglutination” value ([4]; ristocetin, VWF-dependent) was “no effect”.
In the case of platelet activating factor [PAF], the “binding to AnSt-D7L1 by ITC (in words)” value (AnSt-D7L1 [1]) is reported as “Neither showed any detectable binding”.
